In patent US11492335B2, “Aryl or heteroaryl triazolone derivatives or salts thereof, or pharmaceutical compositions comprising the same” (YUHAN CORPORATION, priority 2018, dated 2022):
Structures can show the parent of a compound that is named as a salt. Where two headings read alike, the source gives them in different places.

Legend:
Format in all cases: biochemical
[1] = target: T1, recombinant human VAP-1 (Homo sapiens, UniProt Q16853); test: Activity on recombinant human VAP-1, Amplex Red HRP-coupled hydrogen peroxide assay, benzylamine substrate; settings: recombinant human VAP-1, benzylamine substrate, read-out: Inhibitory Activity (IC50, nM) human VAP-1
T1 construct: purchased R&D systems
T1 sequence (Q16853 1-763): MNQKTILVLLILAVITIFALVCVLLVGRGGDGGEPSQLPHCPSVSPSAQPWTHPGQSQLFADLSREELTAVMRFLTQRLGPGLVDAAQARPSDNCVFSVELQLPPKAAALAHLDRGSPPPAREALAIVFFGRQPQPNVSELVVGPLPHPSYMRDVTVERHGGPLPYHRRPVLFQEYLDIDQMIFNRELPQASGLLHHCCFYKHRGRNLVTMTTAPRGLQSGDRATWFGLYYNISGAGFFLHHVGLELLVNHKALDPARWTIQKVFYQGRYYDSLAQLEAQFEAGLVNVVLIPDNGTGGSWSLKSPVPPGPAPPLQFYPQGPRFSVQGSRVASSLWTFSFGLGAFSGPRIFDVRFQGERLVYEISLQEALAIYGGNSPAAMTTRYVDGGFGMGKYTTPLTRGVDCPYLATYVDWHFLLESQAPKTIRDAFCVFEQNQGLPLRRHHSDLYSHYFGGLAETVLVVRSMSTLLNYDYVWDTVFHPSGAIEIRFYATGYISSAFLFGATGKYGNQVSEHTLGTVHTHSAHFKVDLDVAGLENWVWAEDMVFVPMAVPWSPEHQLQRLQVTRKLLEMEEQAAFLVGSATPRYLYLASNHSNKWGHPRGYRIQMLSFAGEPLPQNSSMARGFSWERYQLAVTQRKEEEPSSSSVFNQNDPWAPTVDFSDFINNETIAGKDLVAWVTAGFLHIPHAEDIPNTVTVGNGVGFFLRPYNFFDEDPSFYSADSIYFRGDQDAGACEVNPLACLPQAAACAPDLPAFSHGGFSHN
Procedure, shortened: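 Fluorescence of resorufin formed from H2O2 (ex 544 nm, em 590 nm) was tracked for 1-2 h after adding 1 mM benzylamine, 200 uM Amplex Red and 1 U/mL HRP to enzyme pretreated with compound for 30 min at 37 °C. IC50 values derive from four-variable logistic fits.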

[2] = target: T2, recombinant human MAO-A (monoamine oxidase-A) (Homo sapiens, UniProt P21397); test: Activity on recombinant human MAO-A, Amplex Red method, 0.5 mM tyramine substrate; settings: read-out: Inhibitory Activity (IC50, nM) MAO-A
T2 construct: purchased Sigma-Aldrich
T2 sequence (P21397 1-527): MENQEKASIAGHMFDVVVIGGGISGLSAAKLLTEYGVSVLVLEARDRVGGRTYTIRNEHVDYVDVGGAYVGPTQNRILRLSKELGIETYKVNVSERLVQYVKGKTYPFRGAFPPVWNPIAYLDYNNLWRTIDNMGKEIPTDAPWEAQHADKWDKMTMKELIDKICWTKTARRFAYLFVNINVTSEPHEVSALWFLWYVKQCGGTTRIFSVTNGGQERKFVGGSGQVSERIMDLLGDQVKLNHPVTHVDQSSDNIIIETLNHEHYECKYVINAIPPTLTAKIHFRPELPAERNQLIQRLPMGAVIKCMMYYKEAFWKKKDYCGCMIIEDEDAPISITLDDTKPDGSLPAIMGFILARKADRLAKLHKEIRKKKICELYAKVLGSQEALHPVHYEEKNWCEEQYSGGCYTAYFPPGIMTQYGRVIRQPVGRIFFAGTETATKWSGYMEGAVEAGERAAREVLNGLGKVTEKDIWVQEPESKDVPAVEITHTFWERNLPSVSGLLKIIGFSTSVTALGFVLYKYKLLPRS
Procedure, shortened: (§1)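 Fluorescence (544/590 nm) of resorufin formed from Amplex Red by HRP and enzyme-generated H2O2 was followed over 1-2 h. Substrates were 0.5 mM tyramine for MAO-A and 1 mM benzylamine for MAO-B; compounds were preincubated with enzyme for 30 min at 37° C. IC50 came from four-parameter logistic fitting of signal-rate inhibition.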

[3] = target: T3, recombinant human MAO-B (monoamine oxidase-B) (Homo sapiens, UniProt P27338); test: Activity on recombinant human MAO-B, Amplex Red method, 1 mM benzylamine substrate; settings: read-out: Inhibitory Activity (IC50, nM) MAO-B
T3 construct: purchased Sigma-Aldrich
T3 sequence (P27338 1-520): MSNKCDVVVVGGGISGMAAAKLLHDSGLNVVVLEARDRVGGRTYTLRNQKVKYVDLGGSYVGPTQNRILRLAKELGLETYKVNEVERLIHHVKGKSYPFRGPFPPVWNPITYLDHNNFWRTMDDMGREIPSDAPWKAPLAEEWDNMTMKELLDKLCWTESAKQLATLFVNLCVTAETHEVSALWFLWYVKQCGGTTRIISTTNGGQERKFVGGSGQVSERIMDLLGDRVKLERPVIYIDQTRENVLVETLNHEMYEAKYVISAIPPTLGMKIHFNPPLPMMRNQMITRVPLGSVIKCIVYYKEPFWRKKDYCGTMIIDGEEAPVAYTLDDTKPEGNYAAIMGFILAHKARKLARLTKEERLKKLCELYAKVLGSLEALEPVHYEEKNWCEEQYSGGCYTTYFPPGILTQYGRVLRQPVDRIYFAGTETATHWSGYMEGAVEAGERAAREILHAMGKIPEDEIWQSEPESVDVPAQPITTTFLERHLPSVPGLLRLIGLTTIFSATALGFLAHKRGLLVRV
Procedure, shortened: as §1

[4] = target: T4, recombinant human DAO (diamine oxidase) (Homo sapiens, UniProt P19801); test: Activity on recombinant human DAO, Amplex Red method, 1 mM putrescine substrate; settings: recombinant human DAO, read-out: Inhibitory Activity (IC50, nM) DAO
T4 construct: purchased R&D systems
T4 sequence (P19801 20-751): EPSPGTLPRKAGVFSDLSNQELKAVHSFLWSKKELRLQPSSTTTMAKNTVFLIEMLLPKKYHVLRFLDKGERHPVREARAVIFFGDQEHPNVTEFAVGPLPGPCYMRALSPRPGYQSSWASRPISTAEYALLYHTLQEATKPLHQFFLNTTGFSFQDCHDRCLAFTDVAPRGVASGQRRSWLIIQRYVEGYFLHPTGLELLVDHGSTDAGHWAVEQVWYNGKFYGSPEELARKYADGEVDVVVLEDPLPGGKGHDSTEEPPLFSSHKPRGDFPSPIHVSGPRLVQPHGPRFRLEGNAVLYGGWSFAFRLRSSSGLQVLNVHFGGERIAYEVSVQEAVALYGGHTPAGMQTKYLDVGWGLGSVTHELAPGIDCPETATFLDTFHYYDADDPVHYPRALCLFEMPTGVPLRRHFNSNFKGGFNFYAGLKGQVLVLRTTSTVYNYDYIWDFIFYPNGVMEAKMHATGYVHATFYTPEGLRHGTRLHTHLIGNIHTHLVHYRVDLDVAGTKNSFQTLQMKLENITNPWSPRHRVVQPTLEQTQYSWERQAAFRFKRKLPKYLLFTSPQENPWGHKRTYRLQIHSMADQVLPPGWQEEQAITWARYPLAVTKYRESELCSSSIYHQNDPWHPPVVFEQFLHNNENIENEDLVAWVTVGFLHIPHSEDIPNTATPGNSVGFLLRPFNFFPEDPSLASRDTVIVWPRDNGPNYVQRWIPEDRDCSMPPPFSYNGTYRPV
Procedure, shortened: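 Inhibition of recombinant human DAO (diamine oxidase, R&D systems) was assessed with the Amplex Red Hydrogen Peroxide Assay Kit. Hydrogen peroxide produced from 1 mM putrescine was detected through an HRP-coupled reaction that converts Amplex Red into fluorescent resorufin, read at 544 nm excitation and 590 nm emission. IC50 values came from four-parameter logistic fits in GraphPad Prism.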

[5] = 1 mM putrescine, * = between 10 and 100 nM, ** = between 300 and 1000 nM

Compound	IC50 [1] [nM]	IC50 ([2]; 0.5 mM tyramine substrate) [nM]	IC50 ([3]; 1 mM benzylamine substrate) [nM]	IC50 ([4]; 1 mM putrescine substrate) [nM]	IC50 ([1]; 30 min preincubation at 37° C.) [nM]	IC50 ([2]; 0.5 mM tyramine) [nM]	IC50 ([3]; 1 mM benzylamine) [nM]	IC50 [4, 5] [nM]
NC/C(=C\F)Cn1ncn(-c2ccc(-c3ccc(-c4nnc[nH]4)cc3)cc2F)c1=O [Example 43, 2-[(2E)-2-(aminomethyl)-3-fluoroprop-2-en-1-yl]-4-[3-fluoro-4′-(4H-1,2,4-triazol-3-yl)biphenyl-4-yl]-2,4-dihydro-3H-1,2,4-triazol-3-one]					0.62	> 100000	196	< 100
CC(=O)c1ccc(-c2cccc(-n3cnn(C/C(=C/F)CN)c3=O)c2)s1 [Example 49, 4-[3-(5-acetylthiophen-2-yl)phenyl]-2-[(2E)-2-(aminomethyl)-3-fluoroprop-2-en-1-yl]-2,4-dihydro-3H-1,2,4-triazol-3-one hydrochloride]					0.2	> 100000	800	2.1
NC/C(=C\F)Cn1ncn(-c2ncc(-c3ccc4sc(N)nc4c3)cc2F)c1=O [Example 164, 4-[5-(2-amino-1,3-benzothiazol-5-yl)-3-fluoropyridin-2-yl]-2-[(2E)-2-(aminomethyl)-3-fluoroprop-2-en-1-yl]-2,4-dihydro-3H-1,2,4-triazol-3-one hydrochloride]	0.25	> 100000	183	1.4				
Cc1cc(-c2cccc(-c3ncon3)c2)cnc1-n1cnn(C/C(=C/F)CN)c1=O [Example 140, 2-[(2E)-2-(aminomethyl)-3-fluoroprop-2-en-1-yl]-4-{3-methyl-5-[3-(1,2,4-oxadiazol-3-yl)phenyl]pyridin-2-yl}-2,4-dihydro-3H-1,2,4-triazol-3-one]					0.79	3400	3100	13000
NC/C(=C\F)Cn1ncn(-c2cc(-c3ccc(-c4ccon4)cc3)ccn2)c1=O [Example 167, 2-[(2E)-2-(aminomethyl)-3-fluoroprop-2-en-1-yl]-4-{4-[4-(1,2-oxazol-3-yl)phenyl]pyridin-2-yl}-2,4-dihydro-3H-1,2,4-triazol-3-one]	1	> 100000	> 10000	< 30				
NC/C(=C\F)Cn1ncn(-c2cc(-c3ccc4nonc4c3)ccn2)c1=O [Example 172, 2-[(2E)-2-(aminomethyl)-3-fluoroprop-2-en-1-yl]-4-[4-(2,1,3-benzooxadiazol-5-yl)pyridin-2-yl]-2,4-dihydro-3H-1,2,4-triazol-3-one]	0.67	> 100000	9070	< 30				
COc1cc(-n2cnn(C/C(=C\F)CN)c2=O)ccc1Br [Example 17, 2-[(2Z)-2-(aminomethyl)-3-fluoroprop-2-en-1-yl]-4-(4-bromo-3-methoxyphenyl)-2,4-dihydro-3H-1,2,4-triazol-3-one]					2.7	> 100000	406	31
NC/C(=C\F)Cn1ncn(-c2cc(F)c(Br)c(F)c2)c1=O [Example 20, 2-[(2E)-2-(aminomethyl)-3-fluoroprop-2-en-1-yl]-4-(4-bromo-3,5-difluorophenyl)-2,4-dihydro-3H-1,2,4-triazol-3-one hydrochloride]					2.2	> 100000	> 10000	15

Other lines, results leading:

IC50 [1] [nM]	IC50 ([2]; 0.5 mM tyramine substrate) [nM]	IC50 ([3]; 1 mM benzylamine substrate) [nM]	IC50 ([4]; 1 mM putrescine substrate) [nM]	IC50 ([1]; 30 min preincubation at 37° C.) [nM]	IC50 ([2]; 0.5 mM tyramine) [nM]	IC50 ([3]; 1 mM benzylamine) [nM]	IC50 [4, 5] [nM]	Compound
0.08	81000	250	2.6					Cc1cc(-c2cccc(-n3cnn(C/C(=C/F)CN)c3=O)n2)cc2c1NC(=O)CC2 [Example 197, 6-(6-{1-[(2E)-2-(aminomethyl)-3-fluoroprop-2-en-1-yl]-5-oxo-1,5-dihydro-4H-1,2,4-triazol-4-yl}pyridin-2-yl)-8-methyl-3,4-dihydroquinolin-2(1H)-one hydrochloride]
0.5	> 100000	> 10000	36					CN(C)c1ccc(C#Cc2cccc(-n3cnn(C/C(=C/F)CN)c3=O)n2)cn1 [Example 248, 2-[(E)-2-(aminomethyl)-3-fluoro-allyl]-4-[6-[2-[6-(dimethylamino)-3-pyridyl]ethynyl]-2-pyridyl]-1,2,4-triazol-3-one]
2.4	> 100000	> 10000	2.5					NC/C(=C\F)Cn1ncn(-c2cccc(-c3cccc(N4CCNCC4)c3)n2)c1=O [Example 185, 2-[(2E)-2-(aminomethyl)-3-fluoroprop-2-en-1-yl]-4-{6-[3-(piperazin-1-yl)phenyl]pyridin-2-yl}-2,4-dihydro-3H-1,2,4-triazol-3-one hydrochloride]
1.9	> 100000	650	< 100					NC/C(=C\F)Cn1ncn(-c2cnc(-c3ccc(N4CCOCC4)nc3)cn2)c1=O [Example 221, 2-[(2E)-2-(aminomethyl)-3-fluoroprop-2-en-1-yl]-4-{5-[6-(morpholin-4-yl)pyridin-3-yl]pyrazin-2-yl}-2,4-dihydro-3H-1,2,4-triazol-3-one]
